Results reported in BindingDB's records for PubMed 35227979 (Northwest University, 2022).

Target: Beta-2 adrenergic receptor (Homo sapiens, UniProt P07550)
Assay: Binding affinity to immobilized Halo tag-fused beta2 adrenoceptor (unknown origin) expressed in Escherichia coli BL21 (DE3) assessed as dissociation rate constant by receptor chromatography

Beta-2 adrenergic receptor, sequence (P07550 whole entry, the tested form may be a part): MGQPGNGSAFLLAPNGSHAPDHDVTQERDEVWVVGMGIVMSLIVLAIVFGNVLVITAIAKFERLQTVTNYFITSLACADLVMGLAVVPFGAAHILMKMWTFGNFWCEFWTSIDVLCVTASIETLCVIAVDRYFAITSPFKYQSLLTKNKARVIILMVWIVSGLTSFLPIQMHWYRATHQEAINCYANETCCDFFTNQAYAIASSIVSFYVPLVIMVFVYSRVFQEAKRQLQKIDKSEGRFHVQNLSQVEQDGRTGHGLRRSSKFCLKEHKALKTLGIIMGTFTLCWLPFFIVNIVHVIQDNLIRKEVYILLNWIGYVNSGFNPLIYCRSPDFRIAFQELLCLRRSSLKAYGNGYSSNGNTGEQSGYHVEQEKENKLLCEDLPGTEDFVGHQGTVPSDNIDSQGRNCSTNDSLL

SMILES | Kd [nM]
CC1(C)[C@@H](O)CC[C@]2(C)[C@H]3C(=O)C=C4[C@@H]5C[C@@](C)(C(=O)NCCc6ccc(O)cc6)CC[C@]5(C)CC[C@@]4(C)[C@]3(C)CC[C@@H]12 | 7.5
CNC(C)Cc1ccccc1OC (configuration not stated) [Methoxyphenamine] | 0.98
